# Read-outs that look alike come from different tables or passages of the source.
# System: HIV-IIIb
# Assay: Antiviral assay in MT4 cells
# Type: cell-based
# Conditions: Human immunodeficiency virus 1, IIIB, MT4, 120 h
# Protocol: For the antiviral assay utilizing MT4 cells, 0.4 μL of 189X test concentration of 3-fold serially diluted compound in DMSO was added to 40 μL of cell growth medium (RPMI 1640, 10% FBS, 1% penicilline/Streptomycine, 1% L-Glutamine, 1% HEPES) in each well of 384-well assay plates (10 concentrations) in quidruplicate.
# 1 mL aliquots of 2×10^6 MT4 cells are pre-infected for 1 and 3 hours respectively at 37° C. with 25 μL (MT4) or of either cell growth medium (mock-infected) or a fresh 1:250 dilution of an HIV-IIIb concentrated ABI stock (0.004 m.o.i. for MT4 cells). Infected and uninfected cells are diluted in cell growth medium and 35 μL of 2000 (for MT4) cells is added to each well of the assay plates.
# Assay plates were then incubated in a 37° C. incubator. After 5 days of incubation, 25 μL of 2× concentrated CellTiter-Glo™ Reagent (catalog # G7573, Promega Biosciences, Inc., Madison, Wis.) was added to each well of the assay plate. Cell lysis was carried out by incubating at room temperature for 2-3 minutes, and then chemiluminescence was read using the Envision reader (PerkinElmer).
# [1] = MT4 cells infected with HIV-IIIb, 5 days, CellTiter-Glo, read-out: EC50 nM in MT-4
# [2] = read-out: EC50 nM in MT-4, MT4 cells infected with HIV-IIIb, 5 days, CellTiter-Glo
SMILES,EC50 [1],EC50 [2]
"O=C(NCc1ccc(F)cc1F)c1cn2c(c(O)c1=O)C(=O)N1[C@@H]3COC[C@@H](C3)O[C@H]1C2 (racemic) [50/51, N-(2,4-difluorobenzyl)-9-hydroxy-8,10-dioxo-2,3,5,6,8,10,14,14a-octahydro-2,6-methanopyrido[1′,2′:4,5]pyrazino[2,1-b][1,6,3]dioxazocine-11-carboxamide]",1.9 nM,
"O=C(NCc1ccc(F)cc1F)c1cn2c(c(O)c1=O)C(=O)N1[C@@H]3CC[C@@H](C3)O[C@H]1C2 (racemic) [Compound 1, N-(2,4-difluorobenzyl)-8-hydroxy-7,9-dioxo-2,3,4,5,7,9,13,13a-octahydro-2,5-methanopyrido[1′,2′:4,5]pyrazino[2,1-b][1,3]oxazepine-10-carboxamide]",2.6 nM,
"O=C(NCc1c(F)cc(F)cc1F)c1cn2c(c(O)c1=O)C(=O)N1[C@H]3C[C@H](C3)[C@H]1C2 (single isomer, unassigned) [Compound 96]",2.6 nM,
"O=C(NCc1c(F)cc(F)cc1F)c1cn2c(c(O)c1=O)C(=O)N1[C@H]3C[C@H](C3)[C@@H]1C2 (single isomer, unassigned) [Compound 97]",2.1 nM,
"O=C(NCc1ccc(F)cc1F)c1cn2c(c(O)c1=O)C(=O)N1C(C2)[C@H]2CC[C@@H]1C2 (stereo in doubt) [Compound 38, (1S,4R,12aR)—N-(2,4-difluorobenzyl)-7-hydroxy-6,8-dioxo-1,2,3,4,6,8,12,12a-octahydro-1,4-methanodipyrido[1,2-a:1′,2′-d]pyrazine-9-carboxamide]",,1.7 nM
"O=C(NCc1ccc(F)cc1F)c1cn2c(c(O)c1=O)C(=O)N1C(C2)[C@H]2CC[C@@H]1C2 (stereo in doubt) [Compound 48, (1S,4R,12aS)—N-(2,4-difluorobenzyl)-7-hydroxy-6,8-dioxo-1,2,3,4,6,8,12,12a-octahydro-1,4-methanodipyrido[1,2-a:1′,2′-d]pyrazine-9-carboxamide]",,2.7 nM
"O=C(NCc1c(F)cc(F)cc1F)c1cn2c(c(O)c1=O)C(=O)N1[C@H]3CC(F)C(C3)[C@@H]1C2 (stereo in doubt) [Compound 56, (1R,2S,4R,12aR)-2-fluoro-7-hydroxy-6,8-dioxo-N-(2,4,6-trifluorobenzyl)-1,2,3,4,6,8,12,12a-octahydro-1,4-methanodipyrido[1,2-a:1′,2′-d]pyrazine-9-carboxamide]",3.1 nM,
"O=C(NCc1ccc(F)cc1F)c1cn2c(c(O)c1=O)C(=O)N1[C@H]3CC[C@H](C3)O[C@@H]1C2 [Compound 2, (2R,5S,13aR)—N-(2,4-difluorobenzyl)-8-hydroxy-7,9-dioxo-2,3,4,5,7,9,13,13a-octahydro-2,5-methanopyrido[1′,2′:4,5]pyrazino[2,1-b][1,3]oxazepine-10-carboxamide]",2.2 nM,
"O=C(NCc1ccc(F)cc1F)c1cn2c(c(O)c1=O)C(=O)N1[C@@H]3CC[C@@H](C3)O[C@H]1C2 [Compound 3, (2S,5R,13aS)—N-(2,4-difluorobenzyl)-8-hydroxy-7,9-dioxo-2,3,4,5,7,9,13,13a-octahydro-2,5-methanopyrido[1′,2′:4,5]pyrazino[2,1-b][1,3]oxazepine-10-carboxamide]",2 nM,
"O=C(NCc1ccc(F)cc1F)c1cn2c(c(O)c1=O)C(=O)N1C(C2)[N@@]2CC[C@@H]1C2 (stereo partly drawn) [Compound 4, (1S,4R)—N-(2,4-difluorobenzyl)-7-hydroxy-6,8-dioxo-3,4,6,8,12,12a-hexahydro-2H-1,4-methanopyrido[1′,2′:4,5]pyrazino[1,2-a]pyrimidine-9-carboxamide]",14.8 nM,
"C[C@@H]1CCO[C@H]2Cn3cc(C(=O)NC4(c5ccc(F)cc5F)CC4)c(=O)c(O)c3C(=O)N12 [Compound 5, (4R,12aS)—N-(1-(2,4-difluorophenyl)cyclopropyl)-7-hydroxy-4-methyl-6,8-dioxo-3,4,6,8,12,12a-hexahydro-2H-[1,3]oxazino[3,2-d]pyrido[1,2-a]pyrazine-9-carboxamide]",8.1 nM,
"O=C(NCc1ccc(F)cc1F)c1cn2c(c(O)c1=O)C(=O)N1C(C2)[N@]2CC[C@H]1C2 (stereo partly drawn) [Compound 6, (1R,4S)—N-(2,4-difluorobenzyl)-7-hydroxy-6,8-dioxo-3,4,6,8,12,12a-hexahydro-2H-1,4-methanopyrido[1′,2′:4,5]pyrazino[1,2-a]pyrimidine-9-carboxamide]",5.3 nM,
"O=C(NCc1ccc(F)cc1F)c1cn2c(c(O)c1=O)C(=O)N1C(C2)O[C@H]2CCC[C@@H]1C2 (stereo partly drawn) [Compound 7, (2S,6R)—N-(2,4-difluorobenzyl)-9-hydroxy-8,10-dioxo-3,4,5,6,8,10,14,14a-octahydro-2H-2,6-methanopyrido[1′,2′:4,5]pyrazino[2,1-b][1,3]oxazocine-11-carboxamide]",3.5 nM,
"O=C(NCc1ccc(F)cc1F)c1cn2c(c(O)c1=O)C(=O)N1C(C2)O[C@@H]2CCC[C@H]1C2 (stereo partly drawn) [Compound 8, (2R,6S)—N-(2,4-difluorobenzyl)-9-hydroxy-8,10-dioxo-3,4,5,6,8,10,14,14a-octahydro-2H-2,6-methanopyrido[1′,2′:4,5]pyrazino[2,1-b][1,3]oxazocine-11-carboxamide]",2.5 nM,
"C[C@@H](NC(=O)c1cn2c(c(O)c1=O)C(=O)N1[C@@H]3CC[C@@H](C3)O[C@H]1C2)c1ccc(F)cc1 [Compound 9, (2S,5R,13aS)—N—((R)-1-(4-fluorophenyl)ethyl)-8-hydroxy-7,9-dioxo-2,3,4,5,7,9,13,13a-octahydro-2,5-methanopyrido[1′,2′:4,5]pyrazino[2,1-b][1,3]oxazepine-10-carboxamide]",5.1 nM,
"C[C@@H](NC(=O)c1cn2c(c(O)c1=O)C(=O)N1[C@H]3CC[C@H](C3)O[C@@H]1C2)c1ccc(F)cc1 [Compound 10, (2R,5S,13aR)—N—((R)-1-(4-fluorophenyl)ethyl)-8-hydroxy-7,9-dioxo-2,3,4,5,7,9,13,13a-octahydro-2,5-methanopyrido[1%2′: 4,5]pyrazino[2,1-b][1,3]oxazepine-10-carboxamide]",6.1 nM,
"C[C@@H](NC(=O)c1cn2c(c(O)c1=O)C(=O)N1[C@@H]3CC[C@@H](C3)O[C@H]1C2)c1ccc(F)cc1F [Compound 11, (2S,5R,13aS)—N—((R)-1-(2,4-difluorophenyl)ethyl)-8-hydroxy-7,9-dioxo-2,3,4,5,7,9,13,13a-octahydro-2,5-methanopyrido[1′,2′: 4,5]pyrazino[2,1-b][1,3]oxazepine-10-carboxamide]",4.9 nM,
"C[C@@H](NC(=O)c1cn2c(c(O)c1=O)C(=O)N1[C@H]3CC[C@H](C3)O[C@@H]1C2)c1ccc(F)cc1F [Compound 12, (2R,5S,13aR)—N—((R)-1-(2,4-difluorophenyl)ethyl)-8-hydroxy-7,9-dioxo-2,3,4,5,7,9,13,13a-octahydro-2,5-methanopyrido[1′,2′:4,5]pyrazino[2,1-b][1,3]oxazepine-10-carboxamide]",5.9 nM,
"C[C@H](NC(=O)c1cn2c(c(O)c1=O)C(=O)N1[C@@H]3CC[C@@H](C3)O[C@H]1C2)c1ccc(F)cc1F [Compound 13, (2S,5R,13aS)—N—((S)-1-(2,4-difluorophenyl)ethyl)-8-hydroxy-7,9-dioxo-2,3,4,5,7,9,13,13a-octahydro-2,5-methanopyrido[1%2′: 4,5]pyrazino[2,1-b][1,3]oxazepine-10-carboxamide]",46 nM,
"C[C@H](NC(=O)c1cn2c(c(O)c1=O)C(=O)N1[C@H]3CC[C@H](C3)O[C@@H]1C2)c1ccc(F)cc1F [Compound 14, (2R,5S,13aR)—N—((S)-1-(2,4-difluorophenyl)ethyl)-8-hydroxy-7,9-dioxo-2,3,4,5,7,9,13,13a-octahydro-2,5-methanopyrido[1′,2′:4,5]pyrazino[2,1-b][1,3]oxazepine-10-carboxamide]",65.5 nM,
"O=C(NCc1ccc(F)cc1)c1cn2c(c(O)c1=O)C(=O)N1[C@@H]3CC[C@@H](C3)O[C@H]1C2 [Compound 15, (2 S,5R,13aS)—N-(4-fluorobenzyl)-8-hydroxy-7,9-dioxo-2,3,4,5,7,9,13,13a-octahydro-2,5-methanopyrido[1′,2′:4,5]pyrazino[2,1-b][1,3]oxazepine-10-carboxamide]",2.2 nM,
"O=C(NCc1cccc(F)c1F)c1cn2c(c(O)c1=O)C(=O)N1[C@@H]3CC[C@@H](C3)O[C@H]1C2 [Compound 16, (2S,5R,13aS)—N-(2,3-difluorobenzyl)-8-hydroxy-7,9-dioxo-2,3,4,5,7,9,13,13a-octahydro-2,5-methanopyrido[1′,2′:4,5]pyrazino[2,1-b][1,3]oxazepine-10-carboxamide]",1.5 nM,
"O=C(NCc1ccc(Cl)cc1F)c1cn2c(c(O)c1=O)C(=O)N1[C@@H]3CC[C@@H](C3)O[C@H]1C2 [Compound 17, (2 S,5R,13aS)—N-(4-chloro-2-fluorobenzyl)-8-hydroxy-7,9-dioxo-2,3,4,5,7,9,13,13a-octahydro-2,5-methanopyrido[1′,2′:4,5]pyrazino[2,1-b][1,3]oxazepine-10-carboxamide]",5.9 nM,
"O=C(NCc1ccc(F)c(F)c1)c1cn2c(c(O)c1=O)C(=O)N1[C@@H]3CC[C@@H](C3)O[C@H]1C2 [Compound 18, (2S,5R,13aS)—N-(3,4-difluorobenzyl)-8-hydroxy-7,9-dioxo-2,3,4,5,7,9,13,13a-octahydro-2,5-methanopyrido[1′,2′:4,5]pyrazino[2,1-b][1,3]oxazepine-10-carboxamide]",4.1 nM,
